From patent publication US11939319B2, “Pyridinyl and pyrazinyl-(asa)indolsulfonamides” (UCB Pharma GmbH, priority 2018, dated 2024)

Legend:
GPR17 [1] = target: T1, GPR17 (Homo sapiens, UniProt Q13304); assay: cAMP accumulation functional assay (HTRF) in CHO hGPR17 cells; format: cell-based; design: host or cells: Flp-In T-REx CHO cells, expression induced with doxycycline; conditions: Schild analysis against MDL29,951, 5 μM forskolin, activity range, read-out: cAMP assay pA2 (converted)
Method: (§1) Flp-In T-REx CHO cells stably expressing human GPR17 receptor (CHO hGPR17) from Evi Kostenis' lab (Bonn University, Germany) were cultured at 37° C. in a humidified atmosphere of 5% CO2. Cells were grown in DMEM with Nutrient Mixture F-12 supplemented with hygromycin B (500 μg/ml) and blasticidin (30 μg/ml). Expression from the Flp-In locus was induced by treatment with doxycycline (1 μg/ml) for 16-20 h prior assays.
GPR17 activation can also recruit Gi-type G-protein signaling, resulting in a decrease of intracellular cyclic adenosine monophosphate (cAMP). Intracellular cAMP changes can be measured using the HTRF cAMP dynamic assay kit from CisBio (Codolet, France). Using homogenous time-resolved fluorescence technology (HTRF), the assay is based on competition between native cAMP produced by cells and cAMP labelled with the dye d2. The tracer binding was determined by an anti-cAMP antibody labeled with cryptate.
CHO hGPR17 were detached with PBS containing EDTA and dispatched in black 384-well plates with 5,000 cells per well. Cells were first incubated for 30 minutes at room temperature in HBSS Hepes (pH 7.4) containing vehicle or varying concentrations of test GPR17 antagonist/inverse agonist compounds. Then, a dose response curve of MDL29,951 GPR17 agonist (typically from 10^−5M to 10^−10M) was added on vehicle and on each test GPR17 antagonist/inverse agonist compound concentration in a final volume of 20 μL HBSS Hepes buffer (pH 7.4) containing 1% DMSO, 5 μM forskolin and 0.1 mM IBMX. After 60 minutes incubation at room temperature, the reaction is terminated and the cells lysed by adding the d2 detection reagent and the cryptate reagent in 10 μL lysis buffer each according to manufacturer's instructions. After 60 minutes incubation, changes in cAMP concentrations are measured according to manufacturer's instructions using an Envision plate reader with laser excitation. All incubations were performed in duplicate. Data was analyzed using GraphPad Prism software using the 4-parameter logistic equation to measure MDL29,951 pEC50s in absence and presence of GPR17 antagonist/inverse agonist test compounds. Dose ratio (DR) were plotted against antagonist concentrations and Schild analysis provided estimated affinity pA2 of GPR17 antagonist/inverse agonist test compounds.
The activities of the Example compounds tested are depicted in the table below. The activity ranges A, B and C refer to pA2 values in the cAMP assay as follows: “A”: pA2 6.5≤x<7.5, “B”: pA2 7.5≤x<8.5, “C”: 8.5≤pA2.

GPR17 [2] = target: T1, GPR17; assay: Calcium mobilization functional assay (Ca2+ assay) in CHO hGPR17 cells; format: cell-based; design: host or cells: Flp-In T-REx CHO cells, expression induced with doxycycline; conditions: inhibition of 50 nM MDL29,951 (GPR17 agonist), activity range, read-out: Ca^2+ assay pIC50 (converted)
Method: as §1
GPR17 is a G-protein coupled receptor. GPR17 activation triggers Gq-type G-protein signaling resulting in endoplasmic reticulum calcium (Ca^2+) stores release in cytosol which can be measured using Calcium 5 dye, a fluorescent indicator dye of cytosolic Ca^2+ levels. The compounds of the present invention were assessed either in the Ca^2+ assay or in the GPR17 cAMP assay, described further below.
CHO hGPR17 were defrosted and seeded at a density of 20,000 cells per well into black 384-well plates with clear bottom. Cells were incubated overnight at 37° C. in a humidified atmosphere of 5% CO2. Sixteen to twenty hours after seeding, CHO hGPR17 were loaded for 60 min with Calcium 5 dye, a cytosolic Ca^2+ indicator fluorescent dye, according to manufacturer's instructions. Fluorescent signal relative to cytosolic Ca^2+ concentration was recorded over time at room temperature in FLIPR Tetra reader. Cells were first incubated for 30 minutes at room temperature in HBSS Hepes buffer pH 7.4 containing increasing concentrations of test compounds (typically 10^−11 M to 10^−6M). Then, 50 nM MDL29,951, a GPR17 agonist, was added to the cells. Inhibitory effects of varying concentrations test compounds were measured and resulting pIC50S were determined. All incubations were performed in duplicate and results were compared to a concentration response curve of GPR17 agonist and antagonist reference compounds. Analysis and curve fitting were performed in ActivityBase XE using XLfit 4-parameter logistic equation y=A+((B−A)/(1+((C/x)^D))) where A, B, C and D stand for minimum y, maximum y, IC50 and slope, respectively.
The activities of the Example compounds tested are depicted in the table 6 in Section B-IIB below. The activity ranges A, B and C refer to pIC50 values in the Ca^2+ assay as follows: “A”: pIC50 6.5≤x<7.5, “B”: pIC50 7.5≤x<8.5, “C”: 8.5≤pIC50

T1 sequence (Q13304 29-367 limits assumed): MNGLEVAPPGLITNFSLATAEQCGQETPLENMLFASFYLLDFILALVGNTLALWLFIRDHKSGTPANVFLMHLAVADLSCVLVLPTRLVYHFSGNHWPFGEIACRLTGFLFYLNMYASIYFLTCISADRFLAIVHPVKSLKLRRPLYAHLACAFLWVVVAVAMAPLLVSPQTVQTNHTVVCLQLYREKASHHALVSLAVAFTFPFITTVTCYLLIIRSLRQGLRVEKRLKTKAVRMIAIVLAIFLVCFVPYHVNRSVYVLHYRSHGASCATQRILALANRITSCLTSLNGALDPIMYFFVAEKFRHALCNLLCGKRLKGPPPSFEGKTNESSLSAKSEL

Row | Kb (GPR17 [1]) | IC50 (GPR17 [2]) | Compound
1 | ≤ 0.00316 µM | ≤ 0.00316 µM | COc1nc(Cl)c(F)cc1NS(=O)(=O)c1c[nH]c2nc(Cl)ccc12 [Example I-32, 6-chloro-N-(6-chloro-5-fluoro-2-methoxypyridin-3-yl)-1H-pyrrolo[2,3-b]pyridine-3-sulfonamide]
2 | 0.0316 to 0.316 µM | 0.0316 to 0.316 µM | COc1ccc(NS(=O)(=O)c2c[nH]c3cc(Cl)ccc23)cn1 [Example I-15, 6-chloro-N-(6-methoxypyridin-3-yl)-1H-indole-3-sulfonamide]
3 | ≤ 0.00316 µM | ≤ 0.00316 µM | COc1nc(OC)c(NS(=O)(=O)c2c[nH]c3cc(Cl)ccc23)cc1F [Example I-6, 6-chloro-N-(5-fluoro-2,6-dimethoxypyridin-3-yl)-1H-indole-3-sulfonamide]
4 | – | 0.0316 to 0.316 µM | COc1cc(NS(=O)(=O)c2c[nH]c3cc(Cl)ccc23)c(F)nc1Cl [Example I-4, 6-chloro-N-(6-chloro-2-fluoro-5-methoxypyridin-3-yl)-1H-indole-3-sulfonamide]
5 | – | 0.0316 to 0.316 µM | COc1ccc(NS(=O)(=O)c2c[nH]c3cc(Cl)ccc23)c(Cl)n1 [Example I-8, 6-chloro-N-(2-chloro-6-methoxypyridin-3-yl)-1H-indole-3-sulfonamide]
6 | – | 0.0316 to 0.316 µM | O=S(=O)(Nc1cc(F)cnc1F)c1c[nH]c2cc(Cl)ccc12 [Example I-1, 6-chloro-N-(2,5-difluoropyridin-3-yl)-1H-indole-3-sulfonamide]
7 | – | 0.0316 to 0.316 µM | O=S(=O)(Nc1ccc(Br)nc1)c1c[nH]c2cc(Cl)ccc12 [Example I-20, N-(6-bromopyridin-3-yl)-6-chloro-1H-indole-3-sulfonamide]
8 | ≤ 0.00316 µM | – | O=S(=O)(Nc1cc(F)c(OCC(F)F)nc1F)c1c[nH]c2cc(Cl)ccc12 [Example I-67, 6-chloro-N-[6-(2,2-difluoroethoxy)-2,5-difluoropyridin-3-yl]-1H-indole-3-sulfonamide]
9 | – | 0.0316 to 0.316 µM | O=S(=O)(Nc1ccc(Cl)nc1)c1c[nH]c2cc(Cl)ccc12 [Example I-24, 6-chloro-N-(6-chloropyridin-3-yl)-1H-indole-3-sulfonamide]
10 | ≤ 0.00316 µM | – | COc1nc(OC(F)F)c(F)cc1NS(=O)(=O)c1c[nH]c2c1ccc1cccnc12 [Example I-68, N-[6-(difluoromethoxy)-5-fluoro-2-methoxypyridin-3-yl]-1H-pyrrolo[3,2-h]quinoline-3-sulfonamide]
11 | 0.0316 to 0.316 µM | – | COc1nc(Cl)ccc1NS(=O)(=O)c1c[nH]c2nc(C(F)F)ccc12 [Example I-28, N-(6-chloro-2-methoxypyridin-3-yl)-6-(difluoromethyl)-1H-pyrrolo[2,3-b]pyridine-3-sulfonamide]
12 | – | 0.0316 to 0.316 µM | N#Cc1ccc(NS(=O)(=O)c2c[nH]c3cc(Cl)ccc23)cn1 [Example I-19, 6-chloro-N-(6-cyanopyridin-3-yl)-1H-indole-3-sulfonamide]
13 | – | 0.0316 to 0.316 µM | O=S(=O)(Nc1cnc(Cl)c(F)c1)c1c[nH]c2cc(Cl)ccc12 [Example I-23, 6-chloro-N-(6-chloro-5-fluoropyridin-3-yl)-1H-indole-3-sulfonamide]
14 | ≤ 0.00316 µM | – | COc1nc(OC(F)F)c(F)cc1NS(=O)(=O)c1c[nH]c2cc(Cl)ccc12 [Example I-9, 6-chloro-N-[6-(difluoromethoxy)-5-fluoro-2-methoxypyridin-3-yl]-1H-indole-3-sulfonamide]
15 | 0.00316 to 0.0316 µM | – | COc1cc(OC(F)F)ncc1NS(=O)(=O)c1c[nH]c2cc(Cl)ccc12 [Example I-40, 6-chloro-N-[6-(difluoromethoxy)-4-methoxypyridin-3-yl]-1H-indole-3-sulfonamide]
16 | 0.00316 to 0.0316 µM | – | COc1nc(OCC(F)F)ccc1NS(=O)(=O)c1c[nH]c2nc(C(F)F)ccc12 [Example I-53, N-[6-(2,2-difluoroethoxy)-2-methoxypyridin-3-yl]-6-(difluoromethyl)-1H-pyrrolo[2,3-b]pyridine-3-sulfonamide]
17 | – | 0.0316 to 0.316 µM | COc1ncc(Cl)cc1NS(=O)(=O)c1c[nH]c2cc(Cl)ccc12 [Example I-17, 6-chloro-N-(5-chloro-2-methoxypyridin-3-yl)-1H-indole-3-sulfonamide]
18 | 0.0316 to 0.316 µM | – | O=S(=O)(Nc1cc(F)c(OCC(F)F)nc1F)c1c[nH]c2nc(Cl)ccc12 [Example I-44, 6-chloro-N-[6-(2,2-difluoroethoxy)-2,5-difluoropyridin-3-yl]-1H-pyrrolo[2,3-b]pyridine-3-sulfonamide]
19 | ≤ 0.00316 µM | – | COc1nc(C2CC2)c(F)cc1NS(=O)(=O)c1c[nH]c2cc(Cl)ccc12 [Example I-50, 6-chloro-N-(6-cyclopropyl-5-fluoro-2-methoxypyridin-3-yl)-1H-indole-3-sulfonamide]
20 | ≤ 0.00316 µM | – | COc1nc(OC(F)F)c(F)cc1NS(=O)(=O)c1c[nH]c2nc(Cl)ccc12 [Example I-22, 6-chloro-N-[6-(difluoromethoxy)-5-fluoro-2-methoxypyridin-3-yl]-1H-pyrrolo[2,3-b]pyridine-3-sulfonamide]
21 | ≤ 0.00316 µM | – | COc1nc(OC(F)F)c(F)cc1NS(=O)(=O)c1c[nH]c2cc(C(F)F)ccc12 [Example I-16, N-[6-(difluoromethoxy)-5-fluoro-2-methoxypyridin-3-yl]-6-(difluoromethyl)-1H-indole-3-sulfonamide]
22 | 0.00316 to 0.0316 µM | – | COc1nc(OCCF)ccc1NS(=O)(=O)c1c[nH]c2cc(Cl)ccc12 [Example I-13, 6-chloro-N-[6-(2-fluoroethoxy)-2-methoxypyridin-3-yl]-1H-indole-3-sulfonamide]
23 | ≤ 0.00316 µM | – | COc1nc(OCCOC(F)F)c(F)cc1NS(=O)(=O)c1c[nH]c2nc(C(F)F)ccc12 [Example I-58, N-[6-[2-(difluoromethoxy)ethoxy]-5-fluoro-2-methoxypyridin-3-yl]-6-(difluoromethyl)-1H-pyrrolo[2,3-b]pyridine-3-sulfonamide]
24 | ≤ 0.00316 µM | – | COc1nc(OCC(F)F)c(F)cc1NS(=O)(=O)c1c[nH]c2c1ccc1cccnc12 [Example I-69, N-[6-(2,2-difluoroethoxy)-5-fluoro-2-methoxypyridin-3-yl]-1H-pyrrolo[3,2-h]quinoline-3-sulfonamide]
25 | ≤ 0.00316 µM | – | COc1nc(OC(F)F)c(F)cc1NS(=O)(=O)c1c[nH]c2cc(C#N)ccc12 [Example I-66, 6-cyano-N-[6-(difluoromethoxy)-5-fluoro-2-methoxypyridin-3-yl]-1H-indole-3-sulfonamide]
26 | 0.00316 to 0.0316 µM | – | COc1ccc(NS(=O)(=O)c2c[nH]c3cc(Cl)ccc23)c(OCC(F)F)n1 [Example I-39, 6-chloro-N-[2-(2,2-difluoroethoxy)-6-methoxypyridin-3-yl]-1H-indole-3-sulfonamide]
27 | – | 0.0316 to 0.316 µM | COc1ccc(NS(=O)(=O)c2c[nH]c3c2ccc2ccccc23)c(OC)n1 [Example I-70, N-(2,6-dimethoxypyridin-3-yl)-1H-benzo[g]indole-3-sulfonamide]
28 | 0.0316 to 0.316 µM | – | COc1nc(Cl)ccc1NS(=O)(=O)c1c[nH]c2nc(Cl)ccc12 [Example I-35, 6-chloro-N-(6-chloro-2-methoxypyridin-3-yl)-1H-pyrrolo[2,3-b]pyridine-3-sulfonamide]
